Consider 2 compounds from patent US20210077625A1, “RAY TRACING TECHNIQUE FOR WIRELESS CHANNEL MEASUREMENTS” (Cohere Technologies, Inc., priority 2017, published 2021).

The conditions of data set [1]: at 25° C.; cited from earlier work.
Data set [2] concerns the target T1, N-myristoyltransferase 1 (NMT1) (Homo sapiens, UniProt P30419).
T1 sequence (P30419 1-496): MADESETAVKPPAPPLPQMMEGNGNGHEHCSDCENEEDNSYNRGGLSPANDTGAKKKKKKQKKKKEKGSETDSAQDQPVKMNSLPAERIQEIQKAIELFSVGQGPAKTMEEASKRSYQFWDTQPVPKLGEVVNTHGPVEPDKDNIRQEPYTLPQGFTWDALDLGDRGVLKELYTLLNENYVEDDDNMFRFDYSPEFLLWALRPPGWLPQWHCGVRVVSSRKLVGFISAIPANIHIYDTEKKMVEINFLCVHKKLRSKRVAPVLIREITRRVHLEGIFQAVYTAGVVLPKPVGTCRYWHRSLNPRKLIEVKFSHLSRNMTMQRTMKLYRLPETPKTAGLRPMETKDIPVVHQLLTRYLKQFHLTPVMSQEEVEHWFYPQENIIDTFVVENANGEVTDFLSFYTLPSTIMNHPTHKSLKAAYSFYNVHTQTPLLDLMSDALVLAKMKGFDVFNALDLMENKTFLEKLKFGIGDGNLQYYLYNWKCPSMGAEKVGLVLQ
The settings on record: reported in literature; cited from earlier work.

The next data set deals with melanoma. The following applies: reported in literature; cited from earlier work.
In another data set the test system is LM36R xenograft tumor. Nature of the data set: Gene array / microarray RNA analysis of LM36R xenograft tumors. It counts as in vivo. The protocol: Gene array was performed on all tumors. […] By varying the delivery process of a single drug, one might be able to prevent resistance.
RNA Extraction and QC: RNA was extracted using the Qiagen miRNEasy™ kit with on column DNAse treatment. Tissue was lysed and homogenized in Qiazol™ with a rotor-stator probe homogenizer for 40 seconds or until fully disrupted (1 ml Qiazol™ per 100 mg of tissue). RNA was eluted in 50 ul nuclease free water. One microliter was used to determine OD (optical density) values on a Nanodrop 1000. One microliter was used to assess sample profiles on the Agilent 2100 using the RNA 6000 Nano assay. Total RNA (250 ng) was amplified and labeled using the ThermoFisher Scientific Illuina™ TotalPrep™ RNA Amplification kit. Labeled cRNA was hybridized to Illumina HT12™ bead array. Image acquisition and data extraction were performed.

The subject of data set [3] is LM36R human melanoma xenograft. Put plainly: Tumor growth of vemurafenib-resistant LM36R melanoma xenograft in nude mice. In kind it is in vivo, mouse. The settings on record: nude male mice, 5 mg of drug/kg per injection, bi-weekly tail vein, 4 weeks, n=5 per group; p-value 0.048 at week 4. The protocol: Vemurafenib-resistant LM36R human melanoma cells were inoculated (5.0×10^5 cells/mouse) into the right flank of athymic Nu/Nu nude male mice (Cr1:NU-Foxn1^nu strain code 088)) n=5 per group, and progression of tumor was recorded using the volume model of length×(width^2)×0.52. Mice were split into four groups consisting of a control (empty HANP), free Tris DBA-Pd, HANP with Tris DBA-Pd, and HANP with Tris DBA-Pd and αIGF1R antibody. Free Tris DBA-Pd was first dissolved in DMSO and then mixed with Kolliphor EL™. At last, the mixture was diluted by H2O before injection at concentration of 1 mg/mL of DBA. The ratio of DMSO, Kolliphor EL™ and H2O was controlled as 1:2:7 (v/v). The treatments were administered through bi-weekly tail vein injections over the course of 4 weeks (5 mg of drug/kg per injection). Tumor samples were analyzed for CD44 (hyaluronate receptor) expression by immunohistochemistry.

Data set [4] in a line: Dispersion, solubility and stability in water, FBS, cell culture media. In kind it is physicochemical. The following applies: for solubility (general statement): water / not specified.

In the case of `CCCCCCCC` [octane], in data set [1], the “percent solubility in water by weight” value is reported as 0.63×10^−4 % w/w.
On to “Tris (dibenzylideneacetone) dipalladium [Tris DBA-Pd]”, for which the “activity against the enzyme N-myristoyltransferase 1” value in data set [2] is given as “activity”. Moreover, the “efficacy against melanoma in vitro and preclinical models of pancreatic cancer, chronic lymphocytic leukemia, multiple myeloma” value in the data set with melanoma was “efficacious”. Moreover, the “SCG2 (secretogranin 2) gene expression” value in the data set on LM36R xenograft tumor is recorded as “downregulated”. The “inhibition of LM36R tumor growth (tumor volume)” value in data set [3] was “showed efficacy”. The results for the “solubility (general statement)” value in data set [4] and in data set [4] (listed as Tris (dibenzylideneacetone) dipalladium) were “Water-insoluble” and “poor solubility”, respectively. Further, in data set [4] (water, FBS, cell culture media), the “behaviour in water, FBS, and cell culture media” value is “immediately precipitated”.
